Measurements from ChEMBL document CHEMBL4823282, “Novel Broad-Spectrum Antimicrobial Peptide Derived from Anoplin and Its Activity on Bacterial Pneumonia in Mice” (J Med Chem, 2021).
The source made the active and inactive calls. The calls are words filed in the database; no cut-off is given here. Where a SMILES comes first, the peptide text is derived from it. Bridges are numbered along the chain shown (N, C = ends). [ ]: non-standard residue; d: D form. The star is where a group is joined. X1 = CC[C@H](C)CCCCC(=O)*; Dab = NCC[C@H](N)C(=O)O

Assays:
Staphylococcus aureus [1] = assay: Antibacterial activity against Staphylococcus aureus ATCC 25923 incubated with 2000 ug/ml chymotrypsin for 6 hrs followed by bacterial addition and measured after 18 hrs by CLSI based broth dilution method; format: functional, organism-based; details: dose 2000.0 µg/ml, time 23.0 hrs
Klebsiella pneumoniae [2] = assay: Antibacterial activity against Klebsiella pneumoniae ATCC 700603 incubated with 2000 ug/ml trypsin for 6 hrs followed by bacterial addition and measured after 18 hrs by CLSI based broth dilution method; format: functional, organism-based; details: dose 2000.0 µg/ml, time 23.0 hrs
Klebsiella pneumoniae [3] = assay: Antibacterial activity against Klebsiella pneumoniae ATCC 700603 infected in BALB/C mouse assessed as reduction in inflammatory cell infiltration in […] at 5 mg/kg, ip by hematoxylin and eosin staining based assay; format: functional, organism-based
[4] = Toxicity in BALB/C mouse infected with Klebsiella pneumoniae ATCC 700603 assessed as change in liver color at 5 mg/kg, ip by hematoxylin and eosin staining based assay; format: organism-based; details: in vivo
Klebsiella pneumoniae [5] = assay: Antibacterial activity against Klebsiella pneumoniae ATCC 700603 infected in BALB/C mouse assessed as reduction in inflammatory response at 5 to 10 mg/kg, ip by hematoxylin and eosin staining based assay; format: functional, organism-based; details: dose 5-10 mg/kg
Klebsiella pneumoniae [6] = assay: Antibacterial activity against Klebsiella pneumoniae ATCC 700603 infected in BALB/C mouse assessed as alveolar expansion at 5 mg/kg, ip by hematoxylin and eosin staining based assay; format: functional, organism-based
Staphylococcus aureus [7] = assay: Drug localization in surface of Staphylococcus aureus ATCC 25923 at 2 times MIC incubated for 30 mins using ACD-labeled compound by PI-staining based laser scanning confocal microscopic analysis; format: functional, organism-based
Klebsiella pneumoniae [8] = assay: Disruption of membrane integrity in Klebsiella pneumoniae ATCC 700603 assessed as membrane creeping at 1 times MIC incubated for 0.5 to 2 hrs by scanning electron microscopy; format: functional, organism-based; details: time 0.5-2 hrs
[9] = Toxicity in BALB/C mouse assessed as induction of inflammatory reaction at 19 mg/kg, ip administered as single dose by hematoxylin and eosin staining based assay; format: organism-based; details: in vivo
[10] = Induction of glomerulus hemorrhage in BALB/C mouse at 82 mg/kg, ip administered as single dose by hematoxylin and eosin staining based assay; format: organism-based; details: in vivo
[11] = Toxicity in BALB/C mouse assessed as effect on kidney at 19 mg/kg, ip administered as single dose by hematoxylin and eosin staining based assay; format: organism-based; details: in vivo
Staphylococcus aureus [12] = assay: Disruption of membrane integrity in Staphylococcus aureus ATCC 25923 assessed as pore formation at 1 times MIC incubated for 0.5 to 2 hrs by scanning electron microscopy; format: functional, organism-based; details: time 0.5-2 hrs
A549 = assay: Cytotoxicity against human A549 cells incubated for 12 hrs by MTT assay; format: cell-based; details: A549, 12 h
[13] = Toxicity in BALB/C mouse assessed as effect on heart at 19 mg/kg, ip administered as single dose by hematoxylin and eosin staining based assay; format: organism-based; details: in vivo
Klebsiella pneumoniae [14] = assay: Antibacterial activity against Klebsiella pneumoniae ATCC 700603 incubated with 0.2 to 0.02 ug/ml chymotrypsin for 6 hrs followed by bacterial addition and measured after 18 hrs by CLSI based broth dilution method; format: functional, organism-based; details: dose 0.2-0.02 µg/ml, time 23.0 hrs
Klebsiella pneumoniae [15] = assay: Disruption of membrane integrity in Klebsiella pneumoniae ATCC 700603 assessed as membrane blebbing at 1 times MIC incubated for 0.5 to 2 hrs by scanning electron microscopy; format: functional, organism-based; details: time 0.5-2 hrs
[16] = Stability in BALB/C mouse serum assessed as compound degradation time measured up to 1440 mins by HPLC analysis; format: ADME, cell-free; details: 24 h
Klebsiella pneumoniae [17] = assay: Disruption of membrane integrity in Klebsiella pneumoniae ATCC 700603 assessed as pore formation at 1 times MIC incubated for 0.5 to 2 hrs by scanning electron microscopy; format: functional, organism-based; details: time 0.5-2 hrs
[18] = Induction of renal interstitial cell hemorrhage in BALB/C mouse at 82 mg/kg, ip administered as single dose by hematoxylin and eosin staining based assay; format: organism-based; details: in vivo

SMILES	Activity (Staphylococcus aureus [1])	Activity (Klebsiella pneumoniae [2])	Activity (Klebsiella pneumoniae [3])	Activity [4]	Activity (Klebsiella pneumoniae [5])	Activity (Klebsiella pneumoniae [6])	Activity (Staphylococcus aureus [7])	Activity (Klebsiella pneumoniae [8])	Activity [9]	Activity [10]	Activity [11]	Activity (Staphylococcus aureus [12])	IC50 (A549) [µM]	Activity [13]	Activity (Klebsiella pneumoniae [14])	Activity (Klebsiella pneumoniae [15])	Time [16] [min]	Activity (Klebsiella pneumoniae [17])	Activity [18]
CC[C@H](C)CCCCC(=O)N[C@@H](CCN)C(=O)N[C@H](C(=O)N[C@@H](CCN)C(=O)N[C@H]1CCNC(=O)[C@H]([C@@H](C)O)NC(=O)[C@H](CCN)NC(=O)[C@H](CCN)NC(=O)[C@H](CC(C)C)NC(=O)[C@@H](Cc2ccccc2)NC(=O)[C@H](CCN)NC1=O)[C@@H](C)O (X1-[Dab]T[Dab][Dab][Dab][dF]L[Dab][Dab]T; lactam 4-C)	Active	Active	inactive	Toxic	–	–	–	–	–	–	–	–	–	–	–	–	–	–	–
NCCCC[C@H](NC(=O)[C@H](CCCCN)NC(=O)[C@H](Cc1c[nH]c2ccccc12)NC(=O)[C@H](CCCCN)NC(=O)[C@H](CCCCN)NC(=O)[C@H](Cc1c[nH]c2ccccc12)NC(=O)[C@H](Cc1c[nH]c2ccccc12)NC(=O)[C@@H](N)CCCCN)C(=O)N[C@@H](Cc1c[nH]c2ccccc12)C(=O)N[C@@H](Cc1c[nH]c2ccccc12)C(N)=O (H-KWWKKWKKWW-NH2)	–	–	–	–	Active	Active	Active	Active	Toxic	Toxic	Toxic	Active	87.5	Toxic	Active	Active	11.84	Active	Toxic
